Reference: the Bradley open melting point set (2014)
Where “and” joins values, the source holds several entries; their conditions need not be identical. Identical values can stand only once.

Row | SMILES | melting point
1 | O=C(/C=C/c1ccc(-c2ccccc2)o1)c1ccco1 [(2E)-1-(2-furyl)-3-(5-phenyl-2-furyl)prop-2-en-1-one] | 100 °C
2 | C[C@H](NC(=O)OC(C)(C)C)C(=O)O [N-boc-L-alanine] | 82 °C
3 | O=C(O)COc1ccccc1[N+](=O)[O-] [2-nitrophenoxyacetic acid] | 158 °C
4 | C[C@]12CC[C@H]3[C@@H](CCC4=CC(=O)CC[C@@H]43)[C@@H]1CC[C@@H]2O [Nandrolone] | 112 °C
5 | O=C[C@H](O)[C@@H](O)[C@@H](O)[C@H](O)CO [D-galactose] | 167 °C
6 | CCOc1ccccc1OCC [1,2-diethoxybenzene] | 44 °C
7 | CC(C)CC(C)C [2,4-dimethylpentane] | -119 °C
8 | BrCCBr [1,2-dibromoethane] | 10 °C
9 | CCCCC(CC)C(=O)O (stereo not given) [2-ethylhexanoic acid] | -59 °C
10 | COc1ccc(Br)cc1 [4-bromoanisole] | 11 °C
11 | O=C(O)[C@H]1CCCN1C(=O)OCc1ccccc1 [N-benzyloxycarbonyl-D-proline] | 77 °C
12 | OB(O)c1ccc(OCc2ccccc2)c(F)c1 [4-benzyloxy-3-fluorobenzeneboronic acid] | 130 °C
13 | [O-][n+]1c(Cl)cccc1Cl [2,6-dichloropyridine n-oxide] | 138 °C
14 | O=c1on(-c2ccccc2)c(Br)c1-c1ccccc1 [3-bromo-2,4-diphenylisoxazol-5(2H)-one] | 166 °C
15 | CC(C)CC(N)C(=O)O (stereo in doubt) [D-Leucine] | 293 °C
16 | O=C(O)c1ccc(O)cc1 [4-Hydroxybenzoic acid] | 216 °C
17 | CC(CC(=O)O)C(=O)O (stereo not given) [2-Methylsuccinic acid] | 111 °C
18 | CCOC1Oc2ccc(C)cc2C(=O)/C1=C\Nc1nc2ccc(Cl)cc2s1 (stereo not given) | 147 °C
19 | N#CCc1ccccc1Cl [2-chlorobenzyl_cyanide] | 24 °C
20 | CCCCCCCCCCCC(N)=O [Lauramide] | 99 °C
21 | O=C(O)c1ccc(Cl)s1 [5-chlorothiophene-2-carboxylic acid] | 151 °C
22 | Cc1c(F)ccc([N+](=O)[O-])c1C [3-fluoro-1,2-dimethyl-6-nitrobenzene] | 41 °C
23 | Cc1ccn(C(N)=O)n1 [3-methyl-1h-pyrazole-1-carboxamide] | 125 °C

Row | SMILES | melting point
24 | OCCCl [2-chloroethanol] | -63 °C
25 | NCCCCCCO [6-Aminohexan-1-ol] | 56 °C
26 | NC1=C(c2ccccc2)C(=O)c2ccccc21 [3-amino-2-phenylindenone] | 271 °C
27 | O=C(CCl)Nc1cccc([N+](=O)[O-])c1 [2-chloro-3'-nitroacetanilide] | 114 °C
28 | Oc1ncc(F)c(O)n1 [5-Fluorouracil] | 283 °C
29 | Cc1cc(C)c(C)c(CCl)c1C [2,3,5,6-tetramethylbenzyl chloride] | 70 °C
30 | C/C(CCc1oc2ccc(Cl)cc2c1-c1ccc(C)o1)=N\O | 115 °C
31 | Fc1ccccc1-c1ccccc1 [2-fluorobiphenyl] | 74 °C
32 | CCCCCCCCCCN [1-aminodecane] | 16 °C
33 | CC(C)[C@@H](NC(=O)OC(C)(C)C)C(=O)O [N-boc-D-valine] | 78 °C
34 | CCCc1ccc(-c2ccc(C(=O)O)cc2)cc1 [4'-n-propylbiphenyl-4-carboxylic acid] | 226 °C
35 | COc1ccccc1 [Anisole] | -37 °C
36 | Cc1cc(CCl)c(C)cc1CCl [2,5-Di(Chloromethyl)-p-xylene] | 132 °C
37 | CC(C)(C)OC(=O)N1CCC[C@H](O)C1 [(S)-1-boc-3-hydroxypiperidine] | 37 °C
38 | CC(=O)Nc1nc(O)c2ncn(COCCOC(C)=O)c2n1 [N,O-Diacetylacyclovir] | 204 °C
39 | N#Cc1ccccc1N [2-aminobenzonitrile] | 48 °C
40 | ClCc1ccc(Cl)cc1 [4-chlorobenzyl_chloride] | 30 °C
41 | NC1(C(=O)O)CCCC1 [Cycloleucine] | 330 °C
42 | COc1cccc(C(=O)O)c1 [3-methoxybenzoic acid] | 106 °C
43 | Clc1ccc(-c2ccc(Cl)cc2)cc1 [PCB-15] | 149 °C
44 | Cc1ccccc1F [2-fluorotoluene] | -87 °C
45 | Clc1ccccc1Cl [o-dichlorobenzene] | -17 °C
46 | N#Cc1ccc(C(F)(F)F)cc1[N+](=O)[O-] [2-nitro-4-(trifluoromethyl)benzonitrile] | 42 °C

Row | SMILES | melting point
47 | O=C(O)[C@@H](O)[C@H](O)C(=O)O [(2S,3S)-2,3-Dihydroxysuccinic acid] | 173 °C
48 | N=C(N)NC(N)=S [N-amidinothiourea] | 164 °C
49 | CCCCCCCCOc1ccc(NC(=O)c2ccc(OC)cc2)cc1 [4-methoxy-N-[4-(octyloxy)phenyl]benzamide] | 153 °C
50 | Cc1c(C)c(C)c(CCl)c(C)c1C [2,3,4,5,6-pentamethylbenzyl chloride] | 83 °C
51 | CCOC(=O)Nc1ccc2c(c1)N(C(=O)CCN1CCOCC1)c1ccccc1S2 [Moricizine] | 156 °C
52 | CC1=C(C(=O)OCc2ccccc2)C(c2ccc3c(c2)OCO3)NC(=O)N1 (stereo not given) | 159 °C
53 | O=C(/C=C/c1ccc(O)cc1)c1ccccc1 [4-hydroxychalcone] | 184 °C
54 | CCCCCC(=O)CCCCC [6-undecanone] | 15 °C
55 | [O-][Cl+3]([O-])([O-])O [Perchloric acid] | -17 °C
56 | Cc1cccc(N/N=C(\C#N)c2nc(-c3ccc(Cl)cc3)cs2)c1 | 158 °C
57 | O=[N+]([O-])c1ccc(Cl)c(CO)c1 [2-chloro-5-nitrobenzyl alcohol] | 77 °C
58 | Nc1ccc(O)c2c1C(=O)c1ccccc1C2=O [1-amino-4-hydroxyanthraquinone] | 208 °C
59 | CCOc1ccc(B(O)O)cc1 [4-ethoxybenzeneboronic acid] | 167 °C
60 | CN(C)S(C)(=O)=O [N,N-dimethylmethanesulfonamide] | 48 °C
61 | [2H]c1c([2H])c2c([2H])c([2H])c3c([2H])c([2H])c([2H])c4c([2H])c([2H])c(c1[2H])c2c34 [(~2~H_10_)Pyrene] | 156 °C
62 | CC(C)(C)OOC(=O)c1ccccc1 [tert-Butyl benzenecarboperoxoate] | 8 °C
63 | S=P(N1CC1)(N1CC1)N1CC1 [1,1',1''-Phosphorothioyltriaziridine] | 51.5 °C
64 | CCCCCI [1-iodopentane] | -86 °C
65 | CCC(C(=O)O)c1ccccc1 (stereo not given) [2-phenylbutyric acid] | 38 °C
66 | O[C@@H]1CO[C@H]2[C@@H]1OC[C@@H]2O [D-isosorbide] | 60 °C
67 | C[C@]12CCC(O)CC1CC[C@@H]1[C@@H]2CC[C@@]2(C)[C@H]1CC[C@]2(O)C#Cc1ccccc1 (stereo not given in full) [21-phenylpregn-20-yne-3,17-diol] | 122 °C
68 | CC(C)CCCCCCCOC(=O)c1ccccc1C(=O)OCCCCCCCC(C)C [Bis(8-methylnonyl) phthalate] | -50 °C
69 | Cc1ccc([N+](=O)[O-])cc1 [4-nitrotoluene] | 52 °C

Next, values leading:

Row | melting point | SMILES
70 | -7 °C | CCCCCCCCCCCCc1ccccc1 [N-dodecylbenzene]
71 | -51 °C | O=C1CCC1 [cyclobutanone]
72 | 141 °C | O=C(NC(Cc1ccccc1)C(=O)O)OCc1ccccc1[N+](=O)[O-] (stereo not given) [N-{[(2-nitrobenzyl)oxy]carbonyl}phenylalanine]
73 | 32 °C | CCOC(=O)/C=C(/C)N [ethyl 3-aminocrotonate]
74 | 162 °C | NS(=O)(=O)Cc1noc2ccccc12 [Zonisamide]
75 | 18 °C | CCOC(=O)/C=C/N(C)C [ethyl 3-(dimethylamino)acrylate]
76 | 330 °C | O=c1cc[nH]c(=O)[nH]1 [Uracil]
77 | -38 °C | CC(C)CCCC(C)CCCC(C)CCCCC(C)CCCC(C)CCCC(C)C (stereo not given) [squalane]
78 | 263 °C | C[C@@H]1C[C@H]2[C@@H]3CCC4=CC(=O)C=C[C@]4(C)[C@@]3(F)[C@@H](O)C[C@]2(C)[C@@]1(O)C(=O)CO [dexamethasone]
79 | 63 °C | C(#Cc1ccccc1)c1ccccc1 [diphenylacetylene]
80 | 174 °C | C=C[C@H]1CN2CC[C@H]1C[C@@H]2[C@@H](O)c1ccnc2ccc(OC)cc12 [Quinidine]
81 | 57 °C | CCCCCCCCCCCCCCCCCCCCCCCCCC [N-hexacosane]
82 | 180 °C | O=C(O)/C=C/c1cccc(Br)c1 [trans-3-bromocinnamic acid]
83 | 235 °C | Nc1ncnc2c1ncn2[C@@H]1O[C@H](CO)[C@@H](O)[C@H]1O [adenosine]
84 | -98 °C (6×) and -97.5 °C | CO [methanol]
85 | 115 °C | OC(CCN1CCCCC1)(c1ccccc1)C1CCCCC1 (stereo not given) [trihexyphenidyl]

Row | melting point | SMILES
86 | 126 °C and 127 °C | NC(=O)c1ccccc1 [benzamide]
87 | 2 °C | CCOC(=O)c1ccccn1 [ethyl picolinate]
88 | 51 °C and 49 °C and 46 °C | C(=N\c1ccccc1)/c1ccccc1 [benzalaniline]
89 | 114 °C | COC(=O)c1ccc(N)cc1 [methyl p-aminobenzoate]
90 | 51 °C | Cc1ccc(C(C)C)c(O)c1 [thymol]
91 | -82 °C | CC[Si](CC)(CC)CC [tetraethylsilane]
92 | 139 °C | O=C(O)c1ccsc1 [thiophene-3-carboxylic acid]
93 | 33 °C | CCCCS(=O)CCCC [di-n-butyl sulfoxide]
94 | 174 °C | O=C(O[C@@H]1[C@H]3C(=C/[C@H](C)C1)\C=C/[C@@H]([C@@H]3CC[C@H]2OC(=O)C[C@H](O)C2)C)[C@@H](C)CC [lovastatin]
95 | 197 °C | c1ccc2c(c1)c1ccccc1c1ccccc21 [Triphenylene]
96 | 219 °C | COC1=CC(=O)C[C@@H](C)[C@]12Oc1c(Cl)c(OC)cc(OC)c1C2=O [griseofulvin]
97 | -31 °C | CCc1ccccc1CC [o-diethylbenzene]
98 | 201 °C | COc1cc(Cc2cnc(N)nc2N)cc(OC)c1OC [Trimethoprim]
99 | 126 °C | CCOC(=O)C1=C(C)CC(C)=N1 [ethyl 3,5-dimethylpyrrole-2-carboxylate]
100 | -14 °C | Cc1ccccc1C#N [o-tolunitrile]
